Source: patent US4608338A, “Process for bioconversion-product recovery” (Celanese Corporation, priority 1982, dated 1986)

Experiments:
[1] = solubility of muconic acid at pH 1.0 (Example III B, precipitation from regular "NO" medium); format: physicochemical
Protocol: To 500 ml of regular "NO" medium are added 15 grams of cis, cis-muconic acid. The pH of the solution is about […]. A 14.2 ml quantity of concentrated NH4 OH solution (15N) is added to adjust the pH to 6.2.
To the neutralized solution is added a 17 ml quantity of concentrated H2 SO4 solution, which lowers the pH of the solution to 0.99. White solids precipitate from the solution, and the solids are filtered, washed and recovered as muconic acid (quantitative recovery; solubility of muconic acid at pH 1.0 is 0.03 wt %).

[2] = solubility of muconic acid in acidified aqueous fermentation medium; format: physicochemical; conditions: pH of 1-2, 20° C.
Protocol: Under optimal conditions, the muconic acid accumulation limit can approach up to about 50 grams of muconic acid per liter of growth medium. The microbiological oxidation step of the present invention process normally is conducted at ambient temperatures up to about 31° C. The muconic acid at a concentration between about 10-45 grams/liter in the cell-free ammonia-neutralized aqueous fermentation medium is precipitated with sulfuric acid or phosphoric acid. The precipitated muconic acid (solubility at pH of 1-2, about 0.07% at 20° C.) is filtered, washed and dried. In a further embodiment of the present invention, the muconic acid is admixed with a solvent medium such as acetic acid (e.g., to form a 40 weight percent muconic acid/acetic acid slurry solution), and then treated under hydrogenation conditions to yield adipic acid.

- solubility [1]: 0.03 wt %
- solubility [2]: about 0.07%
SMILES: O=C(O)/C=C\C=C/C(=O)O [muconic acid, cis, cis-muconic acid]
